“Also recorded” adds a separate entry of the source.
Experiments:
[1] = X-ray powder diffraction of freshly prepared solid dispersions (physical form of drug in matrix); assay type: physicochemical
Method: (§1) An X-ray powder diffraction (XPD) pattern was obtained with a Scintag® XDS 2000 θ/θ diffraction system equipped with a 2 kW normal focus X-ray tube and a liquid nitrogen cooled germanium solid state detector.
The samples were prepared by dissolving ABT-538 in a small volume of 200 proof ethanol in a 250 ml round bottom flask. The flask was vortexed and then placed in a water bath maintained at 75° C. The PEG 8000 was added to the hot alcohol solution with continual swirling until the PEG melted. The flask was then attached to a rotary evaporator, immersed in the water bath (75° C.) under vacuum for 15 minutes to remove the ethanol. After the majority of ethanol had evaporated, the flask was immersed in an ice bath for 15 minutes. The contents of the flask were then vacuum dried at room temperature overnight to remove residual alcohol. The dispersion was removed from the flask, gently ground, and sized to 40-100 mesh size. The drug loads used for these dispersions were 10, 20 and 30% w/w.
The solid dispersion of 30% ABT-538 in 95:5 PEG8000:PVP was prepared by dissolving the ABT-538 and PVP 17 PF in a small volume of 200 proof ethanol in a 250 ml round bottom flask. The remainder of the process was as described above. A 30% ABT-538 dispersion in 85:15 PEG8000:PVP was also prepared similarly as were dispersions of 10 or 20% PVP 17 PF in PEG 8000 without drug.
(§2) Both fenofibrate and PEG 8000 were sized to 40-100 mesh prior to mixing with a spatula on weighing paper. The mixture was then added to a 25 ml beaker and heated to 85° C. in a water bath until the all the material had melted. The molten solution was then poured onto a chilled X-ray sample holder to rapidly solidify the solution. The solid sample was immediately used to monitor the crystallization rate via X-ray powder diffraction.
Fenofibrate (40-100 mesh) was added to the 90:10 PEG 8000:PVP control dispersion (see above) which was also sized to 40-100 mesh and mixed with spatula on a piece of weighing paper. The mixture was then processed as described above for the 15% fenofibrate dispersion in PEG 8000.
Both griseofulvin and PEG 8000 were sized to 40-100 mesh prior to mixing on a weighing paper with a spatula. The sample was then added to an 4 ml stainless steel vessel which was sealed under a N2 atmosphere. The vessel was then immersed into an oil bath maintained at 180° C. […]
A similar plot is shown in FIG. 2 with PVP incorporated into the matrix. […] Crystallization kinetics were determined by heating the samples to 85° C., holding them isothermally for predetermined times followed by heating through the melting transition temperature of ABT-538. The heats of fusion were determined and ratioed against the heat of fusion of the drug melting in the physical mixture, giving the fraction crystallized. […]

[2] = DSC crystallization kinetics, isothermal hold at 85° C.; assay type: physicochemical; details: PVP in matrix versus PEG
Method: DSC measurements were made using a Mettler DSC 30 unit. Samples (4-7 mg) were sealed in standard 40 μl aluminum crucibles with a single hole punched in the lids. An empty crucible of the same type was used as a reference.
A similar plot is shown in FIG. 2 with PVP incorporated into the matrix. […] A similar plot is seen in FIG. 4 for the PEG:PVP dispersion. The endotherm associated with drug melting can clearly be discerned from the other components. Thus, it is possible to follow the kinetics of ABT-538 crystallization via DSC measurements. Crystallization kinetics were determined by heating the samples to 85° C., holding them isothermally for predetermined times followed by heating through the melting transition temperature of ABT-538. The heats of fusion were determined and ratioed against the heat of fusion of the drug melting in the physical mixture, giving the fraction crystallized.

[3] = Isothermal calorimetry (TAM) of recrystallization at 40° C.; assay type: physicochemical
Method: The recrystallization reactions of 30% ABT-538 in PEG or PEG:PVP (95:5) solid dispersions were monitored via isothermal calorimetry (Thermometric 2277 Calorimeter) at 40° C. Since crystallization is an exothermic process, a positive power output indicates crystallization. The magnitude of the power output at any time is proportional to the rate of crystallization. XPD was used to confirm crystallization.
The crystallization rate was also followed via the heat associated with crystallization of ABT-538 using a isothermal calorimetry. The shapes and magnitudes of the crystallization peaks in FIG. 6 indicate that ABT-538 crystallizes more readily in the PEG matrix as compared to the PEG:PVP matrix. This stabilizing effect of PVP is also reflected in the times required for complete crystallization (time to reach baseline) which were <10 hours for PEG and >30 hours for PEG:PVP (95:5).

[4] = XPD monitoring for crystalline drug in samples held at 50° C.; assay type: physicochemical
Method: An X-ray powder diffraction (XPD) pattern was obtained with a Scintag® XDS 2000 θ/θ diffraction system equipped with a 2 kW normal focus X-ray tube and a liquid nitrogen cooled germanium solid state detector. An additional study was performed with a dispersion containing 15% PVP. The samples were held at 50° C. (above the Tg of ABT-538) and X-ray diffraction patterns were measured over time to monitor for the appearance of crystalline ABT-538.

[5] = Aungst et al., Int. J. Pharm. 156, 79 (1997); cited from earlier work
[6] = XPD rate of crystallization upon storage at 25° C.; assay type: physicochemical
Method: as §1, §2
The figure illustrates that the fenofibrate is X-ray-amorphous within the matrix. Again, the fenofibrate is amorphous. Upon storage at 25° C., the fenofibrate begins to crystallize in the PEG 8000 matrix within 1 hour (FIG. 10). Additional crystallization follows up to 12 hours, when the experiment was terminated.
Similar XPD patterns for the griseofulvin dispersion in PEG 8000 and 80:20 PEG 8000:PVP matrices are shown in FIGS. 12 and 13, respectively. In both instances, amorphous griseofulvin is isolated within the respective matrices. […] However, in the presence of PVP (FIG. 15), crystallization is not observed even after 15 hours under the same conditions.

[7] = PEG 8000:PVP matrix, 30% ABT-538, 15% fenofibrate (90:10) or 15% griseofulvin (80:20)
[8] = PEG 8000 matrix, 30% ABT-538, 15% fenofibrate or 15% griseofulvin

Row | SMILES | physical form of drug in the solid dispersion by XPD [1, 7] | physical form of drug in the solid dispersion by XPD [1, 8] | effect of PVP within the matrix on crystallization rate (percent crystallized from heat of fusion) [2] | effect of PVP within the matrix on crystallization rate (percent crystallized from heat of fusion) ([2]; listed as ritonavir) | time required for complete crystallization (time to reach baseline) ([3]; 30% ABT-538 in PEG solid dispersion) [h] | time required for complete crystallization (time to reach baseline) ([3]; 30% ABT-538 in PEG:PVP (95:5) solid dispersion) [h] | time at which crystalline drug is detected (XPD) ([4]; PEG8000 alone, detected at this time and before) [h] | time held without crystalline ABT-538 present (XPD) ([4]; dispersion containing 15% PVP) [h] | effect of PEG solid dispersion formulation on bioavailability [5] | time at which drug begins to crystallize (XPD) ([6]; 15% drug in PEG 8000 matrix, storage at 25° C.) | time without crystallization observed (XPD) ([6]; 15% griseofulvin in 80:20 PEG 8000:PVP, 25° C.) [h]
1 | CC(C)c1nc(CN(C)C(=O)NC(C(=O)NC(Cc2ccccc2)CC(O)C(Cc2ccccc2)NC(=O)OCc2cncs2)C(C)C)cs1 [ABT-538, (2S,3S,5S)-5-(N—(N—((N-methyl-N-((2-isopropyl-4-thiazolyl)-methyl)amino)carbonyl)-L-valinyl)amino-2-(N-((5-thiazolyl)methoxy-carbonyl)-amino)-1,6-diphenyl-3-hydroxyhexane] | Amorphous; also recorded: not crystalline | Amorphous; also recorded: not crystalline | suppresses the crystallization rate | slower | < 10 | > 30 | ≤ 233 | > 272 | – | – | –
2 | O=C1N(Cc2ccc(CO)cc2)[C@H](Cc2ccccc2)[C@H](O)[C@@H](O)[C@@H](Cc2ccccc2)N1Cc1ccc(CO)cc1 [DMP 323] | – | – | – | – | – | – | – | – | unable to improve the bioavailability | – | –
3 | COC1=CC(=O)C[C@@H](C)[C@]12Oc1c(Cl)c(OC)cc(OC)c1C2=O [griseofulvin] | amorphous | amorphous | – | – | – | – | – | – | – | one | > 15
